# Data reported in US9776990B2, “Isoindolone derivatives” (AbbVie Inc., priority 2012, dated 2017).
# Marks after values point to notes of the source that are not given here.
# Tests used:
# H460 = experiment: Proliferation panel assay, H460; format: cell-based; conditions: Homo sapiens, NCI-H460, 120 h; NSCLC, H460, 5 days; read-out: Cellular Proliferation EC50
# Method: (§1) The impact of compounds of the Examples on cancer cell proliferation was determined using the breast cancer cell line MX-1 (ATCC) in a 3-day proliferation assay. MX-1 cells were maintained in RPMI supplemented with 10% FBS at 37 C.° and an atmosphere of 5% CO2. For compound testing, MX-1 cells were plated in 96-well black bottom plates at a density of 5000 cells/well in 90 μl of culture media and incubated at 37° overnight to allow cell adhesion and spreading. Compound dilution series were prepared in DMSO via a 3-fold serial dilution from 3 mM to 0.1 μM. […]
# (§2) Luminescence readings from the Cell Titer Glo assay were normalized to the DMSO treated cells and analyzed using the GraphPad Prism software with sigmoidal curve fitting to obtain EC50s. The minimum significant ratio (MSR) was determined to evaluate assay reproducibility (Eastwood et al., (2006) J Biomol Screen, 11: 253-261). The overall MSR was determined to be 2.1 and a moving MSR (last six run MSR overtime) has been <2.
# (§3) The compound of Example 40 was tested for its impact on proliferation of a panel of cancer cell line types (with specific cell lines tested) as set out in (Table 2). […] Cell proliferation data were analyzed as described above in the MX-1 proliferation assay to obtain the EC50 for the compounds reported in Table 2.
# DLD-1 = experiment: Proliferation panel assay, DLD-1; format: cell-based; conditions: Homo sapiens, 120 h; Colon, DLD-1, 5 days; read-out: Cellular Proliferation EC50
# Method: as §1, §2, §3
# RPMI-8226 = experiment: Proliferation panel assay, RPMI-8226; format: cell-based; conditions: Homo sapiens, 120 h; Multiple Myeloma, RPMI-8226, 5 days; read-out: Cellular Proliferation EC50
# Method: as §1, §2, §3
# [1] = test system: MV4-11 human AML xenograft; experiment: Xenograft tumor growth inhibition assay, MV4-11; format: in vivo, mice; conditions: MV4-11 xenograft
# Method: (§4) The effect of the compound of Example 40 to inhibit the growth of Ramos, OPM-2, MX-1, MV4-11, and HT1080 xenograft tumors was evaluated. Briefly, 0.5×10^6 human cancer cells (HT1080), 1×10^6 human cancer cells (Ramos), 5×10^6 human cancer cells (OPM-2, MV4-11) or 1:10 tumor brie (MX-1) (in S-MEM (MEM, Suspension, no Calcium, no Glutamine)) (Life Technologies Corporation) were inoculated subcutaneously into the right hind flank of female SCID or SCID-beige (MV4-11, HT1080) mice (Charles Rivers Labs) on study day 0. Compound was formulated in 2% EtOH, 5% Tween-80, 20% PEG-400, 73% HPMC (Ramos, OPM-2 and MX-1) or 5% DMSO, 5% EtOH, 30% PEG400, 60% Phosal 53 (MV4-11, HT1080). Administration of compound was initiated at the time of size match on day 8 (HT1080), day 17 (MX-1), or day 18 (Ramos, MV4-11, OPM-2). The tumors were measured by a pair of calipers twice a week starting at the time of size match and tumor volumes were calculated according to the formula V=L×W^2/2 (V: volume, mm^3; L: length, mm. W: width, m) Tumor volume was measured for the duration of the experiment until the mean tumor volume in each group reached an endpoint of >1000 mm^3.
# [2] = test system: breast cancer cell line MX-1; experiment: MX-1 cell line proliferation assay (3-day, Cell Titer Glo); format: cell-based, human; conditions: Homo sapiens, MX1, MX-1 cells, 72 hours, read-out: Cellular proliferation: EC50
# Method: The impact of compounds of the Examples on cancer cell proliferation was determined using the breast cancer cell line MX-1 (ATCC) in a 3-day proliferation assay. MX-1 cells were maintained in RPMI supplemented with 10% FBS at 37 C.° and an atmosphere of 5% CO2. For compound testing, MX-1 cells were plated in 96-well black bottom plates at a density of 5000 cells/well in 90 μl of culture media and incubated at 37° overnight to allow cell adhesion and spreading. Compound dilution series were prepared in DMSO via a 3-fold serial dilution from 3 mM to 0.1 μM. The DMSO dilution series were then diluted 1:100 in phosphate buffered saline, and 10 μL of the resulted solution were added to the appropriate wells of the MX-1 cell plate. The final compound concentrations in the wells were 3, 1, 0.3, 0.1, 0.03, 0.01, 0.003, 0.001, 0.0003 and 0.0001 μM.
# as §2, with “253-261).” for “253-261). The overall MSR was determined to be 2.1 and a moving MSR (last six run MSR overtime) has been <2.”
# BxPC3FP5 = experiment: Proliferation panel assay, BxPC3FP5; format: cell-based; conditions: 120 h; Pancreas, BxPC3FP5, 5 days; read-out: Cellular Proliferation EC50
# Method: as §1, §2, §3
# A-375 = experiment: Proliferation panel assay, A-375; format: cell-based; conditions: Homo sapiens, 120 h; Melanoma, A-375, 5 days; read-out: Cellular Proliferation EC50
# Method: as §1, §2, §3
# PC3M = experiment: Proliferation panel assay, PC3M; format: cell-based; conditions: Homo sapiens, PC-3M, 120 h, Prostate, 5 days, read-out: Cellular Proliferation EC50
# Method: as §1, §2, §3
# GEO = experiment: Proliferation panel assay, GEO; format: cell-based; conditions: 120 h, Colon, 5 days, read-out: Cellular Proliferation EC50
# Method: as §1, §2, §3
# Ramos = experiment: Proliferation panel assay, Ramos; format: cell-based; conditions: Homo sapiens, 120 h, NHL, 5 days, read-out: Cellular Proliferation EC50
# Method: as §1, §2, §3
# 786-0 = experiment: Proliferation panel assay, 786-0; format: cell-based; conditions: Homo sapiens, 120 h; RCC, 786-0, 5 days; read-out: Cellular Proliferation EC50
# Method: as §1, §2, §3
# Raji = experiment: Proliferation panel assay, Raji; format: cell-based; conditions: Homo sapiens, 120 h, Burkitt lymphoma, 5 days, read-out: Cellular Proliferation EC50
# Method: as §1, §2, §3
# [3] = test system: OPM-2 human multiple myeloma cancer xenograft; experiment: Xenograft tumor growth inhibition assay, OPM-2; format: in vivo, mice; conditions: OPM-2 xenograft
# Method: as §4
compound,measurement,setting,value
"Cc1[nH]c(-c2cc(NS(C)(=O)=O)ccc2Oc2ccccc2)c2c1C(=O)CCC2 [Example 40, N-[3-(3-methyl-4-oxo-4,5,6,7-tetrahydro-2H-isoindol-1-yl)-4-phenoxyphenyl]methanesulfonamide]",EC50,H460,> 10000 nM
same,EC50,DLD-1,450 nM
same,EC50,RPMI-8226,94 nM
same,mortality,"[1]; 25 mg/kg/day PO, BID x 14",^b10% mortality.
same,% TGI (tumor growth inhibition),"[1]; 25 mg/kg/day PO, BID x 14, based on day 31",14^b %
same,mortality,"[1]; 50 mg/kg/day PO, BID x 14",^c30% mortality
same,% TGI (tumor growth inhibition),"[1]; 50 mg/kg/day PO, BID x 14, based on day 31",42^c** %
same,mortality,"[1]; 100 mg/kg/day PO, BID 5 on, 3 off x 2",^d40% mortality
same,% TGI (tumor growth inhibition),"[1]; 100 mg/kg/day PO, BID 5 on, 3 off x 2, based on day 31",67^d** %
same,EC50,[2],160 nM
same,EC50,BxPC3FP5,70 nM
same,EC50,A-375,168 nM
same,EC50,PC3M,410 nM
same,EC50,GEO,380 nM
same,EC50,Ramos,340 nM
same,EC50,786-0,139 nM
same,EC50,Raji,36 nM
same,% TGI (tumor growth inhibition),"[3]; 10 mg/kg/day PO, BIDx14, based on day 31",11%
same,% TGD (tumor growth delay),"[3]; 10 mg/kg/day PO, BIDx14, endpoint 1000 mm^3",25%
same,% TGI (tumor growth inhibition),"[3]; 10 mg/kg/day PO, QDx14, based on day 31",16%
same,% TGD (tumor growth delay),"[3]; 10 mg/kg/day PO, QDx14, endpoint 1000 mm^3",25%
same,% TGI (tumor growth inhibition),"[3]; 30 mg/kg/day PO, BIDx14, based on day 31",31* %
same,% TGD (tumor growth delay),"[3]; 30 mg/kg/day PO, BIDx14, endpoint 1000 mm^3",88* %
same,% TGI (tumor growth inhibition),"[3]; 30 mg/kg/day PO, QDx14, based on day 31",27* %
same,% TGD (tumor growth delay),"[3]; 30 mg/kg/day PO, QDx14, endpoint 1000 mm^3",63%
same,% TGI (tumor growth inhibition),"[3]; 100 mg/kg/day PO, BIDx14, based on day 31",43** %
same,% TGD (tumor growth delay),"[3]; 100 mg/kg/day PO, BIDx14, endpoint 1000 mm^3",175*** %
same,% TGI (tumor growth inhibition),"[3]; 100 mg/kg/day PO, QDx14, based on day 31",41** %
same,% TGD (tumor growth delay),"[3]; 100 mg/kg/day PO, QDx14, endpoint 1000 mm^3",88*** %
